In publication PMC5652320 (ACS chemical biology, 2017):

Tests used:
His-PPARγ LBD = molecular target: T1, His-PPARγ LBD (Homo sapiens, UniProt P37231); assay type: biochemical; conditions: TRAP220 coactivator peptide
T1 sequence (P37231 203-477 isoform P37231-2): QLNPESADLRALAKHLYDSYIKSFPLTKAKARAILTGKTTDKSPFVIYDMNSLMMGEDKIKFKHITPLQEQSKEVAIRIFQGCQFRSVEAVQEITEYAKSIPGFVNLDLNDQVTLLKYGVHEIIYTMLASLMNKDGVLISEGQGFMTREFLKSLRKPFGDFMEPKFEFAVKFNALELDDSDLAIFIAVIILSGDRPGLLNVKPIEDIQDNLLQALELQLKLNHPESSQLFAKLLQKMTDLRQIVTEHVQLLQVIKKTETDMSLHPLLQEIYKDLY

full-length PPARγ = molecular target: T2, full-length PPARγ (Homo sapiens, UniProt P37231); test: Full-length PPARγ/5xPPRE-luciferase reporter assay in HEK293T cells; assay type: cell-based; conditions: covalent analog ± 5 μM MRL20
T2 sequence (P37231 1-505): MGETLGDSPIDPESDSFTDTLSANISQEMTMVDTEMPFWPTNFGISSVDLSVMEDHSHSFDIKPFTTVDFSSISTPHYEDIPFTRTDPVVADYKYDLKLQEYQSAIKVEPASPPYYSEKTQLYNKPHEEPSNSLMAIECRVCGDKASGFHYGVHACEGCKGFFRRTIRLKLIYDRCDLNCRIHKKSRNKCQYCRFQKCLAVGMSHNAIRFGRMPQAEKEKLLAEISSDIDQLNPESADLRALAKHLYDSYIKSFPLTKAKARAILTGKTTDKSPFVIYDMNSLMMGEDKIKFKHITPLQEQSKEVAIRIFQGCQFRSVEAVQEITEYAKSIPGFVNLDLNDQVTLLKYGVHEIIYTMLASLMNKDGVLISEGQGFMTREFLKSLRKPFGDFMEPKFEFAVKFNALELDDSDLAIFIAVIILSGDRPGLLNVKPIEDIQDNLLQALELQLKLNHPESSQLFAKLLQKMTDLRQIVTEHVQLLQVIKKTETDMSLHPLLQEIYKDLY

[1] = limited use of MRL20 concentrations to 30 μM in assays; cited from earlier work

Q: For `O=C(Nc1ccccc1)c1cc([N+](=O)[O-])ccc1Cl` [GW9662], which “TR-FRET response to rosiglitazone with covalent antagonist-bound PPARγ LBD” value (His-PPARγ LBD; rosiglitazone titration, endpoint 300 μM) is on record?
A: lower but not blocked

Q: For `COc1ccc2nccc(NC(=O)c3cc([N+](=O)[O-])ccc3Cl)c2c1` [compound 22], which “Effect of covalent antagonist on binding of DHA to PPARγ” value (His-PPARγ LBD; DHA dose response and 30 μM endpoint) is on record?
A: reduced binding of DHA to PPARγ better than GW9662 and T0070907

Q: What about the “Inhibition of allosteric activation of full-length PPARγ by MRL20” value (full-length PPARγ) of the same compound?
A: inhibition of allosteric PPARγ activation

Q: For `COc1ccc(C(=O)n2c(C)c(Cc3ccccc3O[C@@H](C)C(=O)O)c3cc(OC(F)(F)F)ccc32)cc1` [MRL20], which Solubility [1] is on record?
A: solubility issues
